Earlier results in US11026907B2, “Azelaic acid gel, preparation method and application thereof” (CHENGDU JOY YOUNG BIOTECHNOLOGY CO., LTD., priority 2018, dated 2021).
Read-outs that look alike come from different tables or passages of the source.

For `O=C(O)CCCCCCCC(=O)O` [Azelaic acid], which Solubility (in cold water, ether and benzene) is on record?
The Solubility was “slightly soluble”.

And the Solubility (in hot water, alcohol and some polyols)?
Its Solubility is “soluble”.
